# In patent US7012068B2, “Co-administration of a polysaccharide with a chemotherapeutic agent for the treatment of cancer” (Pro-Pharmaceuticals, Inc., priority 2001, dated 2006):
# Several values for one entry are separate records, joined by “and”; a condition that tells them apart may be missing. Equal values may be shown once. Read-outs that look alike come from different tables or passages of the source.
# How the values were obtained:
# Albino Swiss mice [1] = conditions: 17 days
# [2] = tested on: COLO 205 human colon tumor; conditions: for Animals died, Total: over 8 weeks (incl. sacrificed); for Mean survival time: parametric models and stratified Kaplan-Meier estimation
# mice = conditions: cited from earlier work
# Albino Swiss mice [3] = conditions: single i.v. LD50 dose of Adriamycin with or without galactomannan, 14 days
# Procedure: Acute systemic toxicity of the anti-tumor drug adriamycin in the presence and absence of mannan was evaluated in Albino Swiss mice. Mice were bred as described Example 1. Experimental procedures followed approved governmental guidelines as described in Example 1.
# A single dose intravenous injection of the adriamycin alone or adriamycin together with galactomannan preparations was provided via the tail vein at a dose of 0.5 mL/mouse at the doses described below in (1)-(3) and observed for clinical signs immediately after injection, and daily for the duration of the study.
# There were a total of 3 groups of 5 animals each. The groups were as follows: 1) 0.9% NaCl only, 2) Adriamycin only (1.1 mg/mL) and Adriamycin (1.1 mg/mL)+galactomannan (7.2mg/mL).
# 0.9% NaCl was used as a diluent. Animals were weighed prior to injection and at the end of the observation period. Animals surviving at the end of the study were sacrificed by carbon dioxide inhalation.
# The ability of galactomannan to reduce the toxicity of LD50 dosed of Adriamycin was measured by presence or absence of mortality in animals injected with the combination of Adriamycin and the particular polysaccharide.
# [4] = 1 week after treatment initiation, q4d × 3, 5-FU 75 mg/kg, GM 120 mg/kg
# [5] = 1 week after treatment initiation, q4d × 3, 5-FU 75 mg/kg, GM 120 mg/kg, 10 mice per group
# [6] = 2 weeks after treatment initiation, q4d × 3, 5-FU 75 mg/kg, GM 120 mg/kg
# [7] = 2 weeks after treatment initiation, q4d × 3, 5-FU 75 mg/kg, GM 120 mg/kg, 10 mice per group
# [8] = 3 weeks after treatment initiation, q4d × 3, 5-FU 75 mg/kg, GM 120 mg/kg
# [9] = 3 weeks after treatment initiation, q4d × 3, 5-FU 75 mg/kg, GM 120 mg/kg, 10 mice per group
# [10] = 4 weeks (28 days) after treatment initiation, q4d × 3, 5-FU 75 mg/kg, GM 120 mg/kg
# [11] = 4 weeks after treatment initiation, q4d × 3, 5-FU 75 mg/kg, GM 120 mg/kg, 10 mice per group
# [12] = 5 weeks (35 days) after treatment initiation, q4d × 3, 5-FU 75 mg/kg, GM 120 mg/kg
# [13] = 5 weeks after treatment initiation, q4d × 3, 5-FU 75 mg/kg, GM 120 mg/kg, 10 mice per group
# [14] = 6 weeks after treatment initiation (incl. sacrificed), q4d × 3, 5-FU 75 mg/kg, GM 120 mg/kg, 10 mice per group
# [15] = 6 weeks after treatment initiation, q4d × 3, 5-FU 75 mg/kg, GM 120 mg/kg
# [16] = 7 weeks after treatment initiation (incl. sacrificed), q4d × 3, 5-FU 75 mg/kg, GM 120 mg/kg, 10 mice per group
# [17] = 7 weeks after treatment initiation, q4d × 3, 5-FU 75 mg/kg, GM 120 mg/kg
# [18] = 8 weeks after treatment initiation (incl. sacrificed), q4d × 3, 5-FU 75 mg/kg, GM 120 mg/kg, 10 mice per group
# [19] = Day 0 after treatment initiation, q4d × 3, 5-FU 75 mg/kg, GM 120 mg/kg
# [20] = Day 3 after treatment initiation, q4d × 3, 5-FU 75 mg/kg, GM 120 mg/kg
# [21] = i.v. q4d × 3, 5-FU 75 mg/kg, GM 120 mg/kg
# [22] = i.v. q4d × 3, 5-FU 75 mg/kg, GM 120 mg/kg, 10 mice per group
# [23] = q4d × 3, 5-FU 75 mg/kg, GM 120 mg/kg, 10 mice per group
# [24] = q4d × 3, 5-FU 75 mg/kg, GM 120 mg/kg
# [25] = GM 60 mg/kg q1d × 5, 10 mice per group
compound,measurement,setting,value
"O=c1[nH]cc(F)c(=O)[nH]1 [5-FU, 5-fluorouracil, reference compound]",death rate (mice dying / mice in group),Albino Swiss mice [1]; single i.v. 5-FU 420 mg/kg with or without galactomannan,3/5
same,Median tumor weight,[2]; [4],198 mg
same,Animals died,[2]; [5],1
same,Median tumor weight,[2]; [6],245 mg
same,Animals died,[2]; [7],2
same,Median tumor weight,[2]; [8],352 mg
same,Animals died,[2]; [9],0
same,Median tumor weight,[2]; [10],527 mg
same,Animals died,[2]; [11],0
same,deaths out of ten mice within 10 days after the treatment initiation,"[2]; 5-FU 375 mg/kg/dose q4d×3, alone or with galactomannan 120 mg/kg/dose",nine
same,Median tumor weight,[2]; [12],990 mg
same,Animals died,[2]; [13],1
same,Animals died,[2]; [14],0
same,Median tumor weight,[2]; [15],1345 mg
same,Animals died,[2]; [16],0
same,Median tumor weight,[2]; [17],1881 mg
same,Animals died,[2]; [18],1
same,Median tumor weight,[2]; [19],101 mg
same,Median tumor weight,[2]; [20],135 mg
same,Median days to 2× doubling of tumor weight,[2]; [21],23.7 days
same,Animals with small tumors (20% and less) compared to median of untreated after 4-8 weeks of treatment,[2]; [22],1
same,treatment-related (nonspecific) deaths within two weeks,"[2]; out of ten mice, q4d×3, 5-FU 75 mg/kg/dose, galactomannan 120 mg/kg/dose",three
same,"Animals died, Total",[2]; [23],5
same,Mean survival time,[2]; [24],23.7 days
same,LD50,"mice; 5-FU, single dose in mice, Physician's Desk Reference 48th Edition",340 mg/kg
"COc1cccc2c1C(=O)c1c(O)c3c(c(O)c1C2=O)C[C@@](O)(C(=O)CO)C[C@@H]3O[C@H]1C[C@H](N)[C@H](O)[C@H](C)O1 [Adriamycin, doxorubicin]",mortality (mice died / mice in group),Albino Swiss mice [3],Three out of 5 and 3 out of 5
same,mortality (mice died / mice in group),Albino Swiss mice [3]; listed as adriamycin,3/5
same,LD50,"mice; Adriamycin, i.v. in mice, The Merck Index, 12th Edition",21.1 mg/kg
galactomannan [GM],Signs of Toxicity (summary of clinical observations),"Albino Swiss mice [1]; individual male mouse, single i.v. 0.5 mL/mouse: 5-FU 17 mg/mL, GM 4.73 mg/mL, 5-FU 17 mg/mL + GM 9.06 mg/mL",None
same,Median tumor weight,"[2]; 1 week after treatment initiation, GM 60 mg/kg q1d × 5",216 mg
same,Animals died,"[2]; 1 week after treatment initiation, GM 60 mg/kg q1d × 5, 10 mice",1
same,Median tumor weight,[2]; [4],258 mg
same,Animals died,[2]; [5],0
same,Median tumor weight,"[2]; 2 weeks after treatment initiation, GM 60 mg/kg q1d × 5",319 mg
same,Animals died,"[2]; 2 weeks after treatment initiation, GM 60 mg/kg q1d × 5, 10 mice",0
same,Median tumor weight,[2]; [6],320 mg
same,Animals died,[2]; [7],0
same,Median tumor weight,"[2]; 3 weeks after treatment initiation, GM 60 mg/kg q1d × 5",512 mg
same,Animals died,"[2]; 3 weeks after treatment initiation, GM 60 mg/kg q1d × 5, 10 mice",0
same,Median tumor weight,[2]; [8],629 mg
same,Animals died,[2]; [9],0
same,Median tumor weight,[2]; [10],959 mg
same,Median tumor weight,"[2]; 4 weeks after treatment initiation, GM 60 mg/kg q1d × 5",690 mg
same,Animals died,"[2]; 4 weeks after treatment initiation, GM 60 mg/kg q1d × 5, 10 mice",1
same,Animals died,[2]; [11],0
same,Median tumor weight,[2]; [12],1692 mg
same,Median tumor weight,"[2]; 5 weeks after treatment initiation, GM 60 mg/kg q1d × 5",1116 mg
same,Animals died,"[2]; 5 weeks after treatment initiation, GM 60 mg/kg q1d × 5, 10 mice",0
same,Animals died,[2]; [13],0
same,Animals died,[2]; [14],1
same,Median tumor weight,"[2]; 6 weeks after treatment initiation, GM 60 mg/kg q1d × 5",1421 mg
same,Animals died,"[2]; 6 weeks after treatment initiation, GM 60 mg/kg q1d × 5, 10 mice",0
same,Median tumor weight,[2]; [15],1690 mg
same,Animals died,"[2]; 7 weeks after treatment initiation (incl. sacrificed), GM 60 mg/kg q1d × 5, 10 mice",1
same,Animals died,[2]; [16],0
same,Median tumor weight,"[2]; 7 weeks after treatment initiation, GM 60 mg/kg q1d × 5",1152 mg
same,Median tumor weight,[2]; [17],1764 mg
same,Median tumor weight,"[2]; 8 weeks (56 days) after treatment initiation, GM 60 mg/kg q1d × 5",1152 mg
same,Median tumor weight,"[2]; 8 weeks (56 days) after treatment initiation, q4d × 3, 5-FU 75 mg/kg, GM 120 mg/kg",1813 mg
same,Animals died,[2]; [18],1
same,Animals died,"[2]; 8 weeks after treatment initiation, GM 60 mg/kg q1d × 5, 10 mice",0
same,Median tumor weight,"[2]; Day 0 after treatment initiation, GM 60 mg/kg q1d × 5",117 mg
same,Median tumor weight,[2]; [19],100 mg
same,Median tumor weight,"[2]; Day 3 after treatment initiation, GM 60 mg/kg q1d × 5",162 mg
same,Median tumor weight,[2]; [20],162 mg
same,Median days to 2× doubling of tumor weight,[2]; GM 60 mg/kg q1d × 5,20.0 days
same,Animals with small tumors (20% and less) compared to median of untreated after 4-8 weeks of treatment,[2]; [25],0
same,Tumor complete regression after 56 days of treatment,[2]; [25],0
same,Median days to 2× doubling of tumor weight,[2]; [21],15.5 days
same,Animals with small tumors (20% and less) compared to median of untreated after 4-8 weeks of treatment,[2]; [22],1
same,Tumor complete regression after 56 days of treatment,[2]; [22],0
same,"Animals died, Total","[2]; GM 60 mg/kg q1d × 5, 10 mice",3
same,"Animals died, Total",[2]; [23],2
same,Mean survival time,[2]; GM 60 mg/kg q1d × 5,18.1 days
same,Mean survival time,[2]; [24],19.2 days
